We go through 3 molecules from US9701556B1, “Compositions, methods, and systems for reducing contamination” (priority 2004, dated 2017).

“And” between values parts separate entries of the source, which are not always exact repeats. Equal entries are not always repeated.

Data set [1] can be described thus: Treatment of contaminated groundwater, BTEX SW 846 8260. As to conditions: 250 ml groundwater, 1 ml 35% hydrogen peroxide (with or without 1 ml Fe-GLC); untreated 34 ppb; ND = non detectible.
Data set [2] is described as follows: Treatment of sulfides in municipal wastewater with ferric chelants and hydrogen peroxide. To be noted: for sulfide reduction after 15 minutes: 2.5:1.0 peroxide to sulfide, 105.8 ppm hydrogen peroxide, 20 ppm chelant where added, peroxide alone averaged; for sulfide treatment after 15 minutes: 37.8 ppm hydrogen peroxide, 12 ppm chelant where added; for Sulfide Remaining, Dose 1 12 ppm Chelant / Sulfide Remaining, Dose 2 6 ppm Chelant: 37.8 ppm H2O2, start 25.4 ppm sulfide; for Sulfide Remaining, Dose 1 20 ppm Chelant / Sulfide Remaining, Dose 2 10 ppm Chelant: 105.8 ppm H2O2, start 42.3 ppm sulfide.
Description: The pH was then raised to 7 using sodium hydroxide. Precipitation of iron oxides and/or hydroxides at this pH offered assurance of complete chelation of still soluble iron after 24 hours.
Total sulfides were tested for using Standard Methods 4500-S^2− D with a Hach Chemical Company (of Loveland, Colo.) DR 2000 Spectrophotometer and reagents from Hach specific for this particular test. To keep total sulfides within the range of the test, samples were diluted with distilled water prior to conducting the test as per Hach instructions.
Tests for total sulfide were conducted after 5, 15, and 30 minutes of contact time on each of the seven liter test jars.

A short description of data set [3]: Treatment of contaminated groundwater, BTEX SW 846 8260. To be noted: 250 ml groundwater, 1 ml 35% hydrogen peroxide (with or without 1 ml Fe-GLC); untreated 56 ppb; ND = non detectible.
Experiment in data set [4]: as above
To be noted: 250 ml groundwater, 1 ml 35% hydrogen peroxide (with or without 1 ml Fe-GLC); untreated 171 ppb; ND = non detectible.

Data set [5] deals with heterotrophic bacteria. As to the kind of experiment: Disinfection of wastewater with chelated iron compounds, total heterotrophic bacteria counts. In kind it is cell-based. To be noted: for disinfection effect, in words: compared with hydrogen peroxide alone. As for the experimental part:
A 10 gallon sample of wastewater from the Massaponax Wastewater Plant was collected and allowed to sit undisturbed for thirty minutes. The clarified supernatant was then pored off of the top of the settled solids within the sample. The supernatant was then mixed and four samples were collected to determine untreated heterotrophic bacteria counts. […] were dissolved in distilled water at 0.4334M. Ferric chloride was added in amounts to achieve saturation of chelant sites on the respective chelants. […] Twenty individual liter samples of supernatant were then decanted from the well-mixed wastewater sample for testing. Four chelated iron products with peroxide were tested at two test concentrations and compared to samples receiving peroxide only and iron chelate only. […] Individual samples were dosed with the respective additives, mixed with a magnetic stir bar and allowed to react for 30 minutes. Samples were then decanted to sterile sample containers containing sodium thiosulfate to stop the oxidation process and preserve the sample. Samples were then placed in a refrigerator until all samples were finished. Samples were packaged in a standard cooler with ice packs and sent via overnite delivery to ProChem Labs in Lynchburg, Va. for analysis for total heterotrophic bacteria counts.

Data set [6] is described as follows: Treatment of contaminated groundwater, BTEX SW 846 8260. As to conditions: 250 ml groundwater, 1 ml 35% hydrogen peroxide (with or without 1 ml Fe-GLC); untreated 27 ppb.
Data set [7] is described as follows: Comparative treatment of 2,4-D in water, GC analysis. To be noted: after four hours.
Description: A solution containing 1.5 L of distilled water, approximately 0.2 g of sodium bicarbonate, and a small amount of sodium salt of 2,4-D were prepared with magnetic stirring at room temperature in a 2.5 L flask. The dissolved sodium bicarbonate increased the alkalinity of the water somewhat, causing the water to mimic a natural water source. Two hundred fifty milliliters of this solution was distributed into three 500 mL Erlenmeyer flasks.
The flasks were then covered with parafilm and swirled to facilitate mixing of the solution.
Data set [8] is described as follows: Treatment of contaminated groundwater, BTEX SW 846 8260. As to conditions: 250 ml groundwater, 1 ml 35% hydrogen peroxide (with or without 1 ml Fe-GLC); untreated 159 ppb; ND = non detectible.
Data set [9] relates to Fecal Coliform. As to the kind of experiment: Disinfection of wastewater, fecal coliform count. In kind it is cell-based. As to conditions: 50 microliters 35% H2O2 (with or without 50 microliters Fe-GLC), after twenty minutes, control 2200.
Excerpt: The samples were divided equally into three clean 500 milliliter sample containers from the single sample taken. The first sample served as a control and was set aside. […] Each sample was capped and shaken briefly to mix the contents. After twenty minutes, sub-samples were taken from each vessel and pored into fecal coliform sample containers for analysis at the Hampton Roads Sanitary District lab.
For data set [10] the following is noted: cited from earlier work.
Data set [11] in a line: Treatment of sulfides in municipal wastewater with ferric chelants and ozone. To be noted: 4 ppm ferric chelant where added; for sulfide remaining: ozone at ~13.4 ppm; for Overall total percentage of sulfide reduction: ozone.
[12] abbreviates: after 30 minutes, 1.5:1.0 ratio of peroxide to sulfide.
Where [13] appears, read: after 30 minutes, 2.5:1.0 ratio of peroxide to sulfide.
The mark [14] stands for this setting: Series One, contact time 5 minutes.
The mark [15] stands for this setting: Series One, contact time 15 minutes.
Setting [16] is: Series One, contact time 30 minutes.
Setting [17] is: Series Two, contact time 5 minutes.
Setting [18] is: Series Two, contact time 15 minutes.
Where [19] appears, read: Series Two, contact time 30 minutes.
Where [20] appears, read: 30 minutes, raw average 18,188 CFUs.

As to `OO` [H2O2 Only, hydrogen peroxide], the Ethylbenzene in data set [1] is reported as 13.0 ppb. In addition, in data set [2], the “sulfide reduction after 15 minutes” value is 52% and the “sulfide treatment after 15 minutes” value is recorded as 42.9%. The “Percentage of Sulfide Treated, Dose 3 38.7 ppm H2O2 Only” value in data set [2] (setting [12]) is 55.5 and 59.0 and 46.5 and 56.3 and 57.0 and 54.7. The “Percentage of Sulfide Treated, Dose 3 105.8 ppm H2O2 Only” value in data set [2] (setting [13]) is 69.0 and 69.5 and 67.8 and 66.4 and 44.4 and 69.3 and 70.2. The same molecule returned a Benzene in [3] of 15.1 ppb. Moreover, the Toluene in data set [4] is listed as 55.7 ppb. Besides, in data set [5], the “disinfection effect, in words” value is “good disinfectant”. The molecule further registered a MtBE in data set [6] of 15.7 ppb. Further, the “2,4-D concentration” value in [7] (250 mL, 200 microliters 50% hydrogen peroxide (with or without 200 microliters Fe-GLC), untreated 130 ppb) was 230 ppb. In addition, the “effect on 2,4-D, in words” value in data set [7] was “had no affect”. Also, in [8], the Xylenes is given as 67.0 ppb. Moreover, the “Fecal Coliform” value in [9] is recorded as 53 cfu/100 mL. Besides, the “Fecal Coliform” value in data set [9] (listed as hydrogen peroxide) was “Fifty three”.
Regarding `O=C([O-])[C@H](O)[C@@H](O)[C@H](O)[C@H](O)CO.[Na+]` [Sodium gluconate], in [10] (after 2 days), the readily biodegradable is 98%. In addition, the solubility in water entry in data set [10] is recorded as “very soluble in water”.
For ferric gluconate [Fe-GLC], the “sulfide reduction after 15 minutes” value in data set [2] is 86.8%. In addition, the “sulfide treatment after 15 minutes” value in [2] came out at 70%. The “Sulfide Remaining, Dose 1 12 ppm Chelant” value in [2] (setting [14]) came to 14.2 ppm; in data set [2] (setting [15]) it was 7.3 ppm; in [2] (setting [16]) it was 4.3 ppm. The “Sulfide Remaining, Dose 2 6 ppm Chelant” value in [2] (setting [14]) was 15.9 ppm; in [2] (setting [15]) it was 11.5 ppm; in data set [2] (setting [16]), 7.4 ppm. The “Sulfide Remaining, Dose 4 Chelant Only” value in data set [2] (Series One, no H2O2, start 25.4 ppm sulfide, contact time 30 minutes) amounted to 24.9 ppm; in data set [2] (Series Two, 20 ppm chelant, no H2O2, start 42.3 ppm sulfide, contact time 30 minutes) it was 43.0 ppm. For the same molecule, the figures for the “Sulfide Remaining, Dose 1 20 ppm Chelant” value in [2] (setting [17]), in data set [2] (setting [18]) and in data set [2] (setting [19]) were 18.6 ppm, 5.6 ppm and 1.1 ppm, respectively. In addition, the “Sulfide Remaining, Dose 2 10 ppm Chelant” value in data set [2] (setting [17]) is given as 23.5 ppm; in data set [2] (setting [18]) it was 7.3 ppm; in [2] (setting [19]), 2.2 ppm. In addition, the “Percentage of Sulfide Treated, Dose 1 12 ppm Chelant 37.8 ppm H2O2” value in data set [2] (setting [12]) came to 83.1. In data set [2] (setting [12]), the “Percentage of Sulfide Treated, Dose 2 6 ppm Chelant 37.8 ppm H2O2” value turned out to be 70.8. The “Percentage of Sulfide Treated, Dose 1 20 ppm Chelant 105.8 ppm H2O2” value in data set [2] (setting [13]) stood at 97.4. Besides, the “Percentage of Sulfide Treated, Dose 2 10 ppm Chelant 105.8 ppm H2O2” value in data set [2] (setting [13]) turned out to be 94.8. In addition, in data set [2] (over 30 minutes of treatment), the “sulfide treatment compared with hydrogen peroxide alone, in words” value is given as “noticeably better”. The sulfide remaining is on record as 3.40 ppm in [11] (start 13.70, contact time 5 minutes); 2.80 ppm in data set [11] (start 13.70, contact time 10 minutes); 1.40 ppm in data set [11] (start 13.70, contact time 20 minutes). The “Overall total percentage of sulfide reduction” value in data set [11] and in data set [11] (listed as Fe-Gluconate) was 90% throughout. Moreover, the “Test 1 CFUs/ml, 19.8 ppm H2O2 6 ppm Fe-Chelant” value in data set [5] (setting [20]) came out at 98 CFUs/ml. In addition, in data set [5] (setting [20]), the “Test 2 CFUs/ml, 39.6 ppm H2O2 12 ppm Fe-Chelant” value is 28 CFUs/ml. Also, the “Test 3 CFUs/ml, 12 ppm Fe-Chelant” value in [5] (chelant alone, no H2O2, 30 minutes, raw average 18,188 CFUs) is recorded as 22,600 CFUs/ml. In [5], the “disinfection effect, in words” value is reported as “better than peroxide alone”. In addition, the “effect on 2,4-D, in words” value in data set [7] is reported as “substantially reduced”. In addition, the “Fecal Coliform” value in data set [9] is “no detectable CFUs”.
